# Data as given in patent US11890288B2, “Sulfonamide or sulfinamide compound having effect of inducing BRD4 protein degradation and pharmaceutical use thereof” (MITSUBISHI TANABE PHARMA CORPORATION, priority 2020, dated 2024).
# Marks after values point to notes of the source that are not given here.
# What was measured:
# [1] = system: human acute myeloid leukemia MV-4-11 cell transplanted mouse; experiment: Antitumor effect in MV-4-11 cell transplanted mouse (tail vein, days 1, 5, 9, 13); format: in vivo; details: tumor weight on day 15
# Procedure: (§1) The in vivo antitumor effect of the compound of the present invention was studied using human acute myeloid leukemia MV-4-11 cell transplanted mouse. MV-4-11 cells were subcutaneously transplanted into the inguinal region of male, 6-week-old BALB/c nude mouse (5×10^6 cells/mouse). The compound of the present invention was administered into the tail vein on days 1, 5, 9, 13 from the time point when the assumed tumor volume determined from ½ab^2 (a is major axis and b is minor axis of tumor) reached about 100 mm^3 (day 1). The control group was administered with a solvent, 20% hydroxypropyl-β-cyclodextrin solution. On day 15, the tumor was isolated, the weight was measured, and the tumor growth inhibitory rate IR (%) was calculated by the following formula. tumor growth inhibitory rate IR (%)={1−(average tumor weight of administration group/average tumor weight of nonadministration control group)}×100(%)
# [2] = system: human multiple myeloma MM.1S cell; experiment: Cytotoxic action on MM.1S cells (WST-8, 96 hr); format: cell-based; details: MM1.S
# Procedure: (§2) The cytotoxic action of the compound of the present invention against human cancer cells was evaluated in vitro. In this experiment, (+)-JQ1 (Nature volume 468, pages 1067-1073 (23 Dec. 2010)) known to have an inhibitory activity on the binding of BRD4 protein and a ligand therefor was used as a positive control drug. Respective cells were suspended in 10% FBS/RPMI1640, seeded in a 96 well plate and cultured at 5% CO2, 37° C. overnight. A test compound dissolved in DMSO was diluted with 10% FBS/RPMI1640 and added and the cells were further cultured for 96 hr. After culturing, the viable cell number was measured using a cell number measurement WST-8 kit (Kishida Chemical Co., Ltd.). As a control, the measurement was performed under conditions free of the test compound. The cytotoxic activity of the compound of the present invention against human prostate cancer LNCaP cells is shown in IC50 value in Table 1. The IC50 value is a concentration of the compound showing 50% cell survival rate when the cell survival rate thereof under compound untreated condition is 100%. It was calculated from the straight line connecting the cell survival rate at two points enclosing the 50% cell survival rate and the compound concentration. […]
# [3] = system: human castration-resistant prostate cancer PC-3 cell; experiment: Cytotoxic action on PC-3 cells (WST-8, 96 hr); format: cell-based; details: PC-3, 96 hr
# Procedure: as §2
# [4] = system: human uterine sarcoma MES-SA cell; experiment: Cytotoxic action on MES-SA cells (WST-8, 96 hr); format: cell-based
# Procedure: as §2
# BRD4 protein = BRD4 protein (Homo sapiens (Human), UniProt O60885); experiment: BRD4 protein degradation inducing action in LNCaP cells (immunofluorescence, 6 hr); format: cell-based; details: anti-BRD4 fluorescence intensity
# Method in brief: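 LNCaP cells in 10% FBS/RPMI1640 exposed to compound for 6 hr, fixed, permeabilized and immunostained for BRD4 with Alexa Fluor 546 secondary; fluorescence (ex 560, em 572 nm) read by imaging. DC50 = concentration giving 50% of untreated signal, interpolated linearly between the two bracketing points.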
# [5] = system: human large cell lung cancer NCI-H460 cell; experiment: Cytotoxic action on NCI-H460 cells (WST-8, 96 hr); format: cell-based; details: NCI-H460, 96 hr
# Procedure: as §2
# [6] = system: human liver cancer HLF cell; experiment: Cytotoxic action on HLF cells (WST-8, 96 hr); format: cell-based
# Procedure: as §2
# [7] = system: human renal cell cancer 786-O cell; experiment: Cytotoxic action on 786-O cells (WST-8, 96 hr); format: cell-based; details: 786-O (printed 786-0)
# Procedure: as §2
# [8] = system: human diffuse large B-cell lymphoma SU-DHL-6 cell; experiment: Cytotoxic action on SU-DHL-6 cells (WST-8, 96 hr); format: cell-based; details: SU-DHL-6, 96 hr
# Procedure: as §2
# [9] = system: human acute myeloid leukemia MV-4-11 cell transplanted mouse; experiment: Antitumor effect of 1 week intermittent administration to MV-4-11 cell transplanted mouse (tail vein, days 1 and 8); format: in vivo; details: tumor weight on day 15
# Procedure: as §1, with “days 1 and 8” for “days 1, 5, 9, 13”, “about 200” for “about 100”, “solvent, 10% Kolliphor ELP/5% ethanol/85% saline” for “solvent, 20% hydroxypropyl-β-cyclodextrin”
# [10] = system: human acute myeloid leukemia MV-4-11 cell; experiment: Cytotoxic action on MV-4-11 cells (WST-8, 96 hr); format: cell-based; details: MV4-11, MV-4-11, 96 hr
# Procedure: as §2
smiles,measurement,setting,value
"COC(=O)C[C@@H]1N=C(c2ccc(-c3ccc(C(=O)NCc4ccc(S(=O)(=O)Nc5ccc(C)c6c(C#N)c[nH]c56)cc4)cc3)cc2)c2c(sc(C)c2C)-n2c(C)nnc21 [Example 1, methyl [(6S)-4-{4′-[({4-[(3-cyano-4-methyl-1H-indol-7-yl)sulfamoyl]phenyl}methyl)carbamoyl][1,1′-biphenyl]-4-yl}-2,3,9-trimethyl-6H-thieno[3,2-f][1,2,4]triazolo[4,3-a][1,4]diazepin-6-yl]acetate]",tumor growth inhibitory rate,[1]; 1 mg/kg/day,68.4* %
same,tumor growth inhibitory rate,[1]; 3 mg/kg/day,95.3* %
same,IC50,[2],0.026 nM
same,IC50,[3],0.88 nM
same,IC50,[4],1.8 nM
same,DC50,BRD4 protein,0.15 nM
same,IC50,[5],28 nM
same,IC50,[6],2.9 nM
same,IC50,[7],660 nM
same,IC50,[8],0.44 nM
same,tumor growth inhibitory rate,[9]; 4 mg/kg/day,56** %
same,tumor growth inhibitory rate,[9]; 12.5 mg/kg/day,92** %
same,IC50,[10],0.16 nM
